How the values were obtained:
postmenopausal women = experiment: Weaning from hormone therapy with mirtazapine as non-hormonal therapy for vasomotor symptoms; format: in vivo; conditions: 15 mg by mouth at bedtime for 6 months from the day hormone therapy is discontinued; postmenopausal women 60-65 year old; in comparison to women on hormone therapy
Description: Mirtazapine is used as non-hormonal therapy for vasomotor symptoms. Treatment dose is 15 mg. The length of weaning is 6 months. In this example subjects for treatment have the following characteristics: Postmenopausal women of 60-65 year old who have been on hormone therapy for the treatment of vasomotor symptoms associated with menopause for at least 2 years. They have either a need or a desire to discontinue hormone therapy. They are informed of the risks of mirtazapine. They are informed that successful use of mirtazapine for the relief of vasomotor symptoms associated with menopause has been reported in the medical literature. This method should not be used for women who have a condition or take medications that preclude the use of mirtazapine. A person treated according to this example is instructed to take 15 mg mirtazapine by mouth on the day that they are to discontinue hormone therapy. Mirtazapine is prescribed to be taken at bedtime and after all their evening rituals are done so that they can lay down right after taking mirtazapine. They are instructed to continue taking 15 mg of mirtazapine at bedtime for 6 months after which mirtazapine administration is discontinued. […] Method to measure hot flash frequency: by self rating or according to the method described by Freedman et al J. Clin Endocrin & Metabolism, Vol 80, pp 2354-2358.

women with breast cancer = conditions: results of 15 randomized controlled trials; cited from earlier work

Structure (SMILES) | withdrawal vasomotor symptoms (postmenopausal women) | measures of hot flashes (women with breast cancer)
CN1CCN2c3ncccc3Cc3ccccc3C2C1 (racemic) [Mirtazapine] | absent or strongly reduced | 
Clc1cccc(Cl)c1N=C1NCCN1 [clonidine] |  | significantly improved
CC(=O)O[C@]1(C(C)=O)CC[C@H]2[C@@H]3C=C(C)C4=CC(=O)CC[C@]4(C)[C@H]3CC[C@@]21C [megestrol acetate] |  | significantly improved
COc1ccc(C(CN(C)C)C2(O)CCCCC2)cc1 (stereo not shown) [venlafaxine] |  | significantly improved

Source: patent US20090306046A1, “METHOD OF TREATMENT OF HORMONE DEPLETION INDUCED VASOMOTOR SYMPTOMS” (N.V. ORGANON, priority 2005, published 2009)
